One data set concerns H2O2 production. Nature of the data set: Production of H2O2 (TMB medium or EM strips). The following applies: gelatin capsule suppository, storage period up to 25 months. As for the experimental part: (1.4) Production of H2O2: Strains were inoculated onto tetramethylbenzidine medium (TMB) and incubated at 37° C. for 2-3 days under anaerobic conditions. H2O2-producing colonies produce a blue pigment upon exposure to ambient air. Alternatively, H2O2-detecting strips from EM Science were used. The reagent impregnated portion of the strip was applied to a Lactobacillus colony and the intensity of the resulting blue color served as a quantitative measure of H2O2 concentration.

Data set [1] can be described thus: Purity and genetic fingerprint (Rep PCR) of suppository lots. Here is the method: (1.1) Purity of the strain: The purity of the suppository strain (i.e., lack of presence of contaminating organisms in a culture) was confirmed by specifically distinguishing the suppository strain from other strains using DNA fingerprinting techniques. DNA fingerprinting was performed by Repetitive Sequence Polymerase Chain Reaction (Rep PCR). In order to determine whether the Rep PCR method could distinguish the suppository strain (CTV-05) from endogenous L. crispatus, 40 strains of L. crispatus were recovered from the vagina of women of child-bearing age and compared to CTV-05. L. crispatus species identity was determined using whole chromosomal DNA homology to control strain L. crispatus ATCC 33197. […] The suppository strain (CTV-05) was distinguished from the others by four bands in the 2500-1500 base pair region. In this region, the CTV-05 fingerprint consists of intense bands at 2500 and 1500 and less amplified bands at 2000 and 1736 base pairs (data not shown).
Six different lots of L. crispatus CTV-05 prepared over a 2 year period were evaluated for purity and stability of the genetic fingerprint. […] Further, there has been no lot-to-lot variability in the “fingerprint” of the DNA of the suppository strain (data not shown).

Another data set relates to women. Nature of the data set: Pooled clinical trials with the CTV-05 suppository (Examples 5-7). It is filed as in vivo, human. An excerpt: The studies presented in Examples 5 6, and 7 have shown that the Lactobacilli of the present invention can be used in a suppository to recolonize the vagina with Lactobacilli. Over fifty women have been included in clinical trials with the Lactobacillus crispatus CTV-05 suppository. […] Furthermore, the present inventors have developed fingerprinting methods which allow the identification of the suppository strain of L. crispatus in human trials.

As to Lactobacillus crispatus CTV-05, the “H2O2 production during storage” value in the data set on H2O2 production is “remained stable”. For the same substance, in data set [1] (six lots prepared over a 2 year period, enriched chopped meat broth, anaerobic), the contaminants in lots entry is recorded as “free of contaminants”. In data set [1] (small scale and scale-up lots), the “genetic fingerprint (Rep PCR) between lots” value is given as “identical fingerprints”. Moreover, in the data set on women (after one month, gelatin capsule inserted into the vagina), the “women with normal vaginal flora remaining colonized” value is listed as “greater than 80%”. Besides, in the data set on women (over fifty women in clinical trials), the “side effects associated with use” value is recorded as “None of the women who received the suppository had any side effects”.

The record behind these values is patent US6372209B1, “Vaginal lactobacillus medicant” (Gyne Logix, Inc., priority 1997, dated 2002).
